Measurements taken from article PMC8617031, “Development of a BCL-xL and BCL-2 dual degrader with improved anti-leukemic activity,” (Nature Communications, 2021).
pIC50: −log10 of the molar value. “And” between values parts separate entries of the source, which are not always exact repeats. Identical values can stand only once.

Tests used:
[1] = biological target: T1, BCL-xL (Homo sapiens, UniProt Q07817); assay: BCL-xL degradation by immunoblot in 293T cells; format: cell-based
T1 construct: endogenous in cells
Protocol: (§1) The DC50 and Dmax were calculated using Prism based on the ImageJ-quantified western blots in Supplementary Fig. 4. c, d AlphaLISA assay to determine the formation of BCL-xL/PROTAC/VHL-ELOC-ELOB (VCB) (c) or BCL-2/PROTAC/VCB (d) ternary complex in a cell-free condition. Data represent the mean of a single experiment with 2 technical replicates. Similar results were obtained in one more independent experiment. e, f NanoBRET assays evaluating intracellular BCL-xL/PROTAC/VCB (e) or BCL-2/PROTAC/VCB (f) ternary complex formation. […] Data are expressed as mean ± s.e.m. of three biological replicates. Source data are provided as a Source data file.
(§2) Representative immunoblots are shown in (a–d) and β-actin was used as a loading control in all immunoblot analyses. The normalized protein content in the immunoblots is presented as mean values ± s.e.m. (n = 3 biologically independent experiments) in the bar graph (bottom panel). e, f The formation of BCL-xL/PROTAC/VCB (e) and BCL-2/PROTAC/VCB (f) ternary complexes in a cell-free condition was determined by AlphaLISA assay. Data represent the mean of a single experiment with 2 technical replicates. […] Source data are provided as a Source data file.
(§3) Cells were collected, washed once with ice-cold phosphate-buffered saline, pH 7.2 (PBS, cat. no. 20012027; Thermo Fisher Scientific) and lysed in RIPA lysis buffer (Cat. No. BP-115DG, Boston Bio Products, Ashland, MA, USA) supplemented with protease and phosphatase inhibitor cocktails (Cat. No. PPC1010, Sigma-Aldrich, St. Louis, MO, USA) through sonication. The samples were centrifuged at 14,000 r.p.m. for 5 min and the supernatants were transferred into a new tube. The protein concentration in the supernatants was determined using the Pierce BCA protein Assay kit (cat. no. 23225, Thermo Fisher Scientific). The protein concentration was normalized, and the samples were reduced in 4× Laemmli’s SDS-sample buffer (cat. no. BP-110R, Boston Bio Products) and denatured at 95 °C for 5 min. An equal amount of protein samples (20–40 μg per lane) were resolved using precast 4–20% Tris-glycine gels (Mini-PROTEAN TGX, cat. no. 456–1094, Bio-Rad), and resolved proteins were transferred onto 0.2-µm pore size polyvinylidene difluoride (PVDF) blotting membranes (cat. no. LC2002, Thermo Fisher Scientific) using mini trans-blot electrophoretic transfer cell (Bio-Rad). The membranes were blocked with non-fat dry milk (5% wt/vol) in 1× Tris-buffered saline-Tween-20 (TBST, cat. no. J77500, Affymetrix) for 1 h at room temperature, and were subsequently probed with primary antibodies at a predetermined optimal concentration in non-fat dry milk (5% wt/vol in TBST) overnight at 4 °C. The membranes were washed three times (5 min each) in TBST and then incubated with horse radish peroxidase (HRP)-conjugated secondary antibodies for 1 h at room temperature. Following sufficient washing with TBST, the membranes were exposed with chemiluminescent HRP substrate (cat. no. WBKLS0500, MilliporeSigma), and the signal was detected using the ChemiDoc MP Imaging System (Bio-Rad) and quantified using the ImageJ (v1.53a) software from NIH.

[2] = biological target: T2, BCL-2 (Homo sapiens, UniProt P10415); assay: BCL-2 degradation by immunoblot in 293T cells; format: cell-based; settings: HEK-293T
T2 construct: endogenous in cells
Protocol: as §1, §2, §3

[3] = biological target: T3, BCL-xL/PROTAC/VHL-ELOC-ELOB (VCB) ternary complex (Homo sapiens, UniProt P40337+Q07817); assay: AlphaLISA ternary complex formation, cell-free, BCL-xL; format: binding; settings: for AlphaLISA signal, BCL-xL/PROTAC/VCB: Fig. 2c raw Alpha reads
T3 construct: pGEX-6P-1-VHL(54-213) (pDL2200) was constructed through Gibson assembly method; made in house; host or cells: bacterial culture (LB broth, IPTG induction)
Protocol: (§4) AlphaLISA assay was used to evaluate the in vitro ternary complex formation between target proteins (BCL-xL or BCL-2), PROTAC and E3 ligase (VCB complex). In each well, 5 nM His-tagged BCL-xL or BCL-2 proteins and 5 nM GST-VCB complex was incubated with varying concentrations of compounds in fourfold serial dilutions, to a final volume of 40 µl in a 96-well PCR plate. After incubation at room temperature for 30 min, 5 µl alpha glutathione-donor beads (Cat. No. 6765300, PerkinElmer) were added to each well (20 µg/ml final concentration) and incubated for another 15 min. Thereafter, 5 µL 6× His-acceptor beads were added to each well (20 µg/ml final concentration) and incubated for an additional 45 min at room temperature. Thereafter, 17 µl of each sample was transferred in adjacent wells of a 384-well proxy plate, and the plate was scanned using the Alpha program on Biotek’s Synergy Neo2 multimode plate reader. The data were expressed as average AlphaLISA signal and plotted against different concentrations of compounds using GraphPad Prism 9 software.

[4] = biological target: T4, BCL-2/PROTAC/VCB ternary complex (Homo sapiens, UniProt P10415+P40337); assay: AlphaLISA ternary complex formation, cell-free, BCL-2; format: binding; settings: for AlphaLISA signal, BCL-2/PROTAC/VCB: Fig. 2d raw Alpha reads
T4 construct: pGEX-6P-1-VHL(54-213) (pDL2200) was constructed through Gibson assembly method; made in house; host or cells: bacterial culture (LB broth, IPTG induction)
Protocol: as §4

[5] = system: Kasumi-1 cells; assay: Viability (MTS) of Kasumi-1 AML cells; format: cell-based, human; settings: Fig. 7a

T1 sequence (Q07817 whole entry): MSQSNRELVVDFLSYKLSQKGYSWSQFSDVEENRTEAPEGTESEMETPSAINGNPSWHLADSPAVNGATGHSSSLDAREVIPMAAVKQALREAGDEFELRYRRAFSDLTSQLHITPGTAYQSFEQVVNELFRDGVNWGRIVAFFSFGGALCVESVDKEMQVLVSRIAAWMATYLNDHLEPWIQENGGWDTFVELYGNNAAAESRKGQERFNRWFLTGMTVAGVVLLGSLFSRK
T4 sequence (P10415 1-211 limits assumed): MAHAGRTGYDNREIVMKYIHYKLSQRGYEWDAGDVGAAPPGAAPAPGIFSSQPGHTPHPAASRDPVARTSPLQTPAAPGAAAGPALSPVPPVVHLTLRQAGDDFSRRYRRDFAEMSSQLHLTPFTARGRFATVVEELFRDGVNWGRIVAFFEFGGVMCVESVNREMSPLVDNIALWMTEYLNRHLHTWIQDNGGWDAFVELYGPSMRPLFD
T4 sequence (P40337 54-213 limits assumed): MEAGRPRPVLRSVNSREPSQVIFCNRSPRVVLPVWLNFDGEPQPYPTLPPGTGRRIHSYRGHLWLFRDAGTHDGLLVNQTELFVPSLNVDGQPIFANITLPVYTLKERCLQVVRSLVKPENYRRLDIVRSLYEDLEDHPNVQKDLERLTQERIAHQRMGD
T4 sequence (Q15369 17-112 partner limits assumed): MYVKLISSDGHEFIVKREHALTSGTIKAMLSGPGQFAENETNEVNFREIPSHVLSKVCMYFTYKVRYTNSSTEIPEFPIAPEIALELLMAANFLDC
T4 sequence (Q15370 whole entry partner): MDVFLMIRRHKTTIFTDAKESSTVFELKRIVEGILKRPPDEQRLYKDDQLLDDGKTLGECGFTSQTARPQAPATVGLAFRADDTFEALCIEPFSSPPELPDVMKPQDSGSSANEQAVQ
T3 sequence (Q07817 1-212 limits assumed): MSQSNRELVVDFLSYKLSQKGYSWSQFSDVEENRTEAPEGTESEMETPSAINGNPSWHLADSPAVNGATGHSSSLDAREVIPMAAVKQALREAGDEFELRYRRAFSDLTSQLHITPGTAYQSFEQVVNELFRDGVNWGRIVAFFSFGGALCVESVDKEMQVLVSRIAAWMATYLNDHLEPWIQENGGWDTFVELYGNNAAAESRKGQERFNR
T3 sequence (P40337 54-213 limits assumed): as the sequence (P40337 54-213 limits assumed) above
T3 sequence (Q15369 17-112 partner limits assumed): as the sequence (Q15369 17-112 partner limits assumed) above
T3 sequence (Q15370 whole entry partner): as the sequence (Q15370 whole entry partner) above
T2 sequence (P10415 whole entry): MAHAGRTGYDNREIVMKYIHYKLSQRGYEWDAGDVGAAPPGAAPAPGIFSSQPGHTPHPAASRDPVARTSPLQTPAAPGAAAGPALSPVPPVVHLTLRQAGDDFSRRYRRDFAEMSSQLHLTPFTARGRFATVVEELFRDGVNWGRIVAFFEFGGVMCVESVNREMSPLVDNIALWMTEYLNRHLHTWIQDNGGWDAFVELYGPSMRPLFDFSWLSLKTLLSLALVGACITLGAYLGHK

## Cc1ncsc1-c1ccc([C@H](C)NC(=O)[C@@H]2C[C@@H](O)CN2C(=O)[C@@H](NC(=O)CCCC(=O)N2CCN(CC3(C)CCC(c4ccc(Cl)cc4)=C(CN4CCN(c5ccc(C(=O)NS(=O)(=O)c6ccc(N[C@H](CCN7CCOCC7)CSc7ccccc7)c(S(=O)(=O)C(F)(F)F)c6)cc5)CC4)C3)CC2)C(C)(C)C)cc1 (stereo partly drawn) [PPC5]
[1]; 293T cells, 16 h
  BCL-xL degradation (in words): partially degrade BCL-xL
[1]; 293T cells, four concentrations, 16 h, Fig. 2b, read-out: BCL-xL DC50
  DC50: 316 nM
[1]; HEK-293T
  Dmax: 56%
[2]
  Dmax: 47%
[3]; AlphaLISA, cell-free, Fig. 2c, 3e
  in vitro ternary complex formation with BCL-xL (in words): stronger ternary complexes
[3]; compound 0.191 nM
  AlphaLISA signal, BCL-xL/PROTAC/VCB: 14064 and 15339
[3]; compound 0.763 nM
  AlphaLISA signal, BCL-xL/PROTAC/VCB: 16647 and 16446
[3]; compound 3.052 nM
  AlphaLISA signal, BCL-xL/PROTAC/VCB: 29664 and 30068
[3]; compound 12.207 nM
  AlphaLISA signal, BCL-xL/PROTAC/VCB: 308120 and 297735
[3]; compound 48.828 nM
  AlphaLISA signal, BCL-xL/PROTAC/VCB: 915794 and 868616
[3]; compound 195.31 nM
  AlphaLISA signal, BCL-xL/PROTAC/VCB: 760327 and 820012
[3]; compound 781.25 nM
  AlphaLISA signal, BCL-xL/PROTAC/VCB: 680312 and 708753
[3]; compound 3125 nM
  AlphaLISA signal, BCL-xL/PROTAC/VCB: 257573 and 298187
[3]; compound 12500 nM
  AlphaLISA signal, BCL-xL/PROTAC/VCB: 45345 and 53654
[3]; compound 50000 nM
  AlphaLISA signal, BCL-xL/PROTAC/VCB: 21182 and 20463
[4]; AlphaLISA, cell-free, Fig. 2d, 3f
  in vitro ternary complex formation with BCL-2 (in words): stronger ternary complexes
[4]; compound 0.191 nM
  AlphaLISA signal, BCL-2/PROTAC/VCB: 15183 and 13115
[4]; compound 0.763 nM
  AlphaLISA signal, BCL-2/PROTAC/VCB: 15317 and 19455
[4]; compound 3.052 nM
  AlphaLISA signal, BCL-2/PROTAC/VCB: 45755 and 47236
[4]; compound 12.207 nM
  AlphaLISA signal, BCL-2/PROTAC/VCB: 410345 and 373015
[4]; compound 48.828 nM
  AlphaLISA signal, BCL-2/PROTAC/VCB: 1136924 and 1140765
[4]; compound 195.31 nM
  AlphaLISA signal, BCL-2/PROTAC/VCB: 1286256 and 1221888
[4]; compound 781.25 nM
  AlphaLISA signal, BCL-2/PROTAC/VCB: 709163 and 786788
[4]; compound 3125 nM
  AlphaLISA signal, BCL-2/PROTAC/VCB: 91120 and 92885
[4]; compound 12500 nM
  AlphaLISA signal, BCL-2/PROTAC/VCB: 18341 and 15512

## Cc1c(-c2c(-c3ccc(F)o3)sc3ncnc(O[C@H](Cc4ccccc4OCc4ccnn4CC(F)(F)F)C(=O)O)c23)ccc(OCCN2CCN(C)CC2)c1Cl [S63845]
[5]; 3.90625 nM (plate column 2)
  Luminescence (raw plate reading): 585765 and 593361 and 588702 and 615617
[5]; 7.8125 nM (plate column 3)
  Luminescence (raw plate reading): 614886 and 587762 and 581843 and 642033
[5]; 15.625 nM (plate column 4)
  Luminescence (raw plate reading): 585793 and 568144 and 557931 and 596587
[5]; 31.25 nM (plate column 5)
  Luminescence (raw plate reading): 583012 and 572945 and 570605 and 624151
[5]; 62.5 nM (plate column 6)
  Luminescence (raw plate reading): 545426 and 545383 and 550949 and 588219
[5]; 125 nM (plate column 7)
  Luminescence (raw plate reading): 511944 and 516519 and 502413 and 546675
[5]; 250 nM (plate column 8)
  Luminescence (raw plate reading): 434681 and 438403 and 429749 and 470053
[5]; 500 nM (plate column 9)
  Luminescence (raw plate reading): 365024 and 363596 and 364210 and 384218
[5]; 1000 nM (plate column 10)
  Luminescence (raw plate reading): 263752 and 271433 and 266762 and 285013
[5]; 2000 nM = 2U (plate column 11)
  Luminescence (raw plate reading): 165813 and 178184 and 172580 and 186041
[5]; 4000 nM = 4U (plate column 12)
  Luminescence (raw plate reading): 112826 and 107734 and 101511 and 111059
[5]; 3.90625 (nM)
  Luminescence normalised to mean of the 0 concentration wells (= 100), viability: 85.5833 and 86.6931 and 86.0124 and 89.9448
[5]; 7.8125 (nM)
  Luminescence normalised to mean of the 0 concentration wells (= 100), viability: 89.838 and 85.875 and 85.0102 and 93.8043
[5]; 15.625 (nM)
  Luminescence normalised to mean of the 0 concentration wells (= 100), viability: 85.5874 and 83.0087 and 81.5166 and 87.1644
[5]; 31.25 (nM)
  Luminescence normalised to mean of the 0 concentration wells (= 100), viability: 85.181 and 83.7102 and 83.3683 and 91.1917
[5]; 62.5 (nM)
  Luminescence normalised to mean of the 0 concentration wells (= 100), viability: 79.6895 and 79.6832 and 80.4965 and 85.9418
[5]; 125 (nM)
  Luminescence normalised to mean of the 0 concentration wells (= 100), viability: 74.7976 and 75.4661 and 73.4051 and 79.872
[5]; 250 (nM)
  Luminescence normalised to mean of the 0 concentration wells (= 100), viability: 63.5091 and 64.0529 and 62.7885 and 68.6771
[5]; 500 (nM)
  Luminescence normalised to mean of the 0 concentration wells (= 100), viability: 53.3319 and 53.1232 and 53.2129 and 56.1362
[5]; 1000 (nM)
  Luminescence normalised to mean of the 0 concentration wells (= 100), viability: 38.5355 and 39.6577 and 38.9753 and 41.6419
[5]; 2000 (nM, 2U)
  Luminescence normalised to mean of the 0 concentration wells (= 100), viability: 24.2261 and 26.0336 and 25.2148 and 27.1815
[5]; 4000 (nM, 4U)
  Luminescence normalised to mean of the 0 concentration wells (= 100), viability: 16.4845 and 15.7405 and 14.8313 and 16.2263
[5]; 72 h, read-out: IC50, viability of Kasumi-1 AML cells
  pIC50: 6.28
